Data from patent US12310980B2, “Synthesis of a potent aromatase inhibitor 17α-acetoxy-10β,11β-dihydroxy-progesterone for the treatment of ER+ breast cancer” (priority 2023, dated 2025).
Where two headings read alike, the source gives them in different places.

Columns and labels:
[1] = target: T1, human aromatase (Homo sapiens, UniProt P11511); test: UPLC-based aromatase inhibition assay; assay type: biochemical
T1 construct: containing protein (2 mg) from human placental microsomes; from tissue; host or cells: human placenta (microsomes)
T1 sequence (P11511 1-503): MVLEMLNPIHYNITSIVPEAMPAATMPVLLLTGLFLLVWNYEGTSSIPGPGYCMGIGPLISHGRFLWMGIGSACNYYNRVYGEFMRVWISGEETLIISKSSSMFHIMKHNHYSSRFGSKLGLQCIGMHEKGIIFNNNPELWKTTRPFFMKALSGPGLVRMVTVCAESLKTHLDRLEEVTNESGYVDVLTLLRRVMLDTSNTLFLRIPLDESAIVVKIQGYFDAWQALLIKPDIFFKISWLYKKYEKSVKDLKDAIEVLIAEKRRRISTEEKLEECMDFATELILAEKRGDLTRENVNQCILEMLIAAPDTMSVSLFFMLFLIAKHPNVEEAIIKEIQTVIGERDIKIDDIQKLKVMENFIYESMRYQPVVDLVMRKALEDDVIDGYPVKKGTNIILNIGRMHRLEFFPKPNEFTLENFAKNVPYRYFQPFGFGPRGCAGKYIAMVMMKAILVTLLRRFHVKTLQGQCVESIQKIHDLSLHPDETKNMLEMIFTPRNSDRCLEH

[2] = tested on: human fibroblast cell line; test: cytotoxicity against human fibroblast cell line
[3] = tested on: ovulation; conditions: oral dosage of 10 mg/day in combination with 50 μg/day ethinylestradiol; cited from earlier work

Structure (SMILES)	IC50 [1]	cytotoxicity [2]	IC50 ([1]; in vitro, human placental microsomes, testosterone substrate, read-out: aromatase inhibition IC50)	inhibition of ovulation [3]
CC(=O)O[C@]1(C(C)=O)CC[C@H]2[C@@H]3CCC4=CC(=O)CC[C@]4(O)[C@H]3[C@@H](O)C[C@@]21C [Compound 2, 17α-Acetoxy-10β,11β-dihydroxy-progesterone]	827 ± 66 nM	non-cytotoxic	–	–
CC(=O)O[C@]1(C(C)=O)CC[C@H]2[C@@H]3CCC4=CC(=O)CC[C@@H]4[C@H]3CC[C@@]21C [Compound 1, 17α-acetoxy-19-nor-progesterone]	–	–	740 ± 24.1 nM	inhibit ovulation
